Test results: patent publication US20180156826A1, “COMPOSITIONS AND METHODS FOR DIAGNOSIS OF AUTISM SPECTRUM DISORDER” (The Board of Regents of the University of Texas System, priority 2015, published 2018)
Square brackets hold non-standard residues; d marks the D form. Peptide text beside a SMILES is read from it. ξ: configuration not given here. N(3,4-(MeO)2phenethyl)Gly = COc1ccc(CCNCC(=O)O)cc1OC; Gly(N-(CH2)3OMe) = COCCCNCC(=O)O; Gly(N-cHex) = O=C(O)CNC1CCCCC1; Nleu = CC(C)CNCC(=O)O; Nme = COCCNCC(=O)O; ξC = NC(CS)C(=O)O

Experiments:
serum IgG1 = assay: Peptoid ELISA, IgG1 subclass detection; type: binding, human
Experimental: (§1) Peptoid compounds were immobilized onto maleimide-activated 96-well plates (Pierce Biotechnology, Rockford, Ill.) by dissolving them to 0.03-0.05 mM in a 0.1 M sodium phosphate, 0.15 M sodium chloride, 10 mM EDTA solution adjusted to pH 7.2 and incubating with shaking for 3 hrs at RT. Plates were washed with PBST and blocked with a 5% goat serum (Thermo Scientific, Rockford, Ill.) in PBST solution for 1 hr at RT. Plates were washed again and incubated with target (serum) samples diluted in blocking buffer (1:1 PBST-1% BSA and SuperBlock) for 2 hrs at RT. After washing, plates were incubated with Goat anti-Human IgG-Fc-HRP conjugate (Bethyl Laboratories, Montgomery, Tex.) diluted 1:30,000 in PBST-1% BSA or mouse anti-human IgG1 (hinge)-HRP conjugate (SouthernBiotech, Birmingham, Ala.) diluted 1:1000 in PBST-1% BSA for 30 min at RT. After another wash, plates were incubated in TMB substrate for 16 min at RT and stopped with 2M H2SO4. Plates were read at 450 nm. All samples were run in duplicate, and every assay contained ASD and TD serum pool samples to serve as internal controls. Results for individual samples were assessed as ratios to the ASD serum pool so as to control for plate-to-plate variation.

serum IgG = assay: Peptoid ELISA, total IgG detection with serum pools; type: binding, human; conditions: pooled serum of 10 TD males vs 10 ASD males
Experimental: as §1
Using the same two serum pools as used during screening, the “hit” peptoids were then tested by ELISA for their ability to bind IgG from the two pools. […]

ASD1 binding, ASD females (serum IgG1; ASD female serum samples, n=10): 1.76±0.81 | ASD1 binding, TD females (serum IgG1; TD female serum samples, n=20): 1.97±0.38 | ASD1 binding of IgG1 from ASD males (serum IgG1; individual ASD male serum samples, n=50, 1:100 dilution, ratio of sample absorbance to control serum pool, error SEM): 1.33±0.31 | ASD1 binding of IgG1 from TD males (serum IgG1; individual TD male serum samples, n=43, 1:100 dilution, ratio of sample absorbance to control serum pool, error SEM): 2.88±0.55 | differentiation in binding between the serum pools, secondary antibody specific to IgG1 subclass (serum IgG1; pooled serum of 10 TD males vs 10 ASD males): nearly four-fold | differentiation in binding between the serum pools, total IgG (serum IgG): two-fold
Structure (SMILES): COCCCN(CC(=O)N(CCc1ccc(OC)c(OC)c1)CC(=O)N(CC(=O)N(CC(=O)N(CCCOC)CC(=O)N(CC(=O)N(CCOC)CC(=O)NC(CS)C(N)=O)C1CCCCC1)CC(C)C)C1CCCCC1)C(=O)CNCCc1ccc(OC)c(OC)c1 (stereo not shown) [ASD1] (H-[N(3,4-(MeO)2phenethyl)Gly][Gly(N-(CH2)3OMe)][N(3,4-(MeO)2phenethyl)Gly][Gly(N-cHex)][Nleu][Gly(N-(CH2)3OMe)][Gly(N-cHex)][Nme][ξC]-NH2)
ASD1 binding of IgG1 from older adult males (serum IgG1; older adult male serum, n=53, compared with ASD and TD males): did not differ from that of the ASD males, but was significantly lower than that of the TD males
